Columns and labels:
cholinergic receptors = settings: in vitro binding studies; cited from earlier work
benzodiazepine receptors = settings: in vitro binding studies; cited from earlier work
[1] = test system: alpha2 adrenergic receptors; settings: in vitro binding studies; cited from earlier work
5-HT1D = molecular target: T1, 5-HT1D (Homo sapiens, UniProt P28221); experiment: 5-HT1D receptor binding; settings: read-out: Serotonin Receptor Binding 5-HT1D (IC50)
T1 construct: host or cells: membrane preparations
T1 sequence (P28221 whole entry, species assumed): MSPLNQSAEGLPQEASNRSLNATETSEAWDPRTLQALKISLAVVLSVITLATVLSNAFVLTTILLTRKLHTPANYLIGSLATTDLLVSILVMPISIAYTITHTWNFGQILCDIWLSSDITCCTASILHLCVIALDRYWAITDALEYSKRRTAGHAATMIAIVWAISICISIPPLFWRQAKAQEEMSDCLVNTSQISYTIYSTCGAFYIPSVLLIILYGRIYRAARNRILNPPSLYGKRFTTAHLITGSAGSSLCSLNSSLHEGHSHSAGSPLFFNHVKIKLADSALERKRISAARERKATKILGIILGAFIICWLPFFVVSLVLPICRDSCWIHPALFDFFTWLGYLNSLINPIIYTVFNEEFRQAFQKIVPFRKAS
Description: (§1) Dopamine and serotonin receptor binding assays were performed in a standard manner with the incubation of membrane preparations in an assay buffer in the presence of a known radioactively labeled specific ligand for the receptor subtypes. Nonspecific binding was determined by assessing binding in the presence of excess ligand. Specific binding was measured as the total labeled ligand bound after the nonspecific binding was subtracted. The effect of the tested agents was measured by determining the competition for the receptor binding across a concentration range. Subsequently, an IC50 was determined for the agents tested. More specific details are provided below for several of the assays performed.

5-HT1B = molecular target: T2, 5-HT1B (Homo sapiens, UniProt P28222); experiment: 5-HT1B receptor binding; settings: read-out: Serotonin Receptor Binding 5-HT1B (IC50)
T2 construct: host or cells: membrane preparations
T2 sequence (P28222 whole entry, species assumed): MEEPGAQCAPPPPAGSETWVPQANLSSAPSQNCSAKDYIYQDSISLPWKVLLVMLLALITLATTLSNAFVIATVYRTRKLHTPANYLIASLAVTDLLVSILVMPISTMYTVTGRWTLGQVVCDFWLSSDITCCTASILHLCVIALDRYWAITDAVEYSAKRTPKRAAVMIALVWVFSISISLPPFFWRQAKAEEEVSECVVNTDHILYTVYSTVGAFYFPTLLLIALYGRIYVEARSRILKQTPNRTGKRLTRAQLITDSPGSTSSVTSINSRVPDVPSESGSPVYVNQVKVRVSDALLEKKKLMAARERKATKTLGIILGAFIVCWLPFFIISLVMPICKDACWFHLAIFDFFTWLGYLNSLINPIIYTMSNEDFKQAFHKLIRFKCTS
Description: as §1

dopaminergic receptors = settings: in vitro binding studies; cited from earlier work
[2] = test system: beta adrenergic receptors; settings: in vitro binding studies; cited from earlier work
5-HT1A receptors [3] = molecular target: T3, 5-HT1A receptors (Homo sapiens, UniProt P08908); experiment: 5-HT1A receptor binding; set-up: expressed in transfected cells; host or cells: CHO cells; settings: [3H]8-OH-DPAT, transfected CHO cell membranes; read-out: Serotonin Receptor Binding 5-HT1A (IC50)
T3 sequence (P08908 1-422): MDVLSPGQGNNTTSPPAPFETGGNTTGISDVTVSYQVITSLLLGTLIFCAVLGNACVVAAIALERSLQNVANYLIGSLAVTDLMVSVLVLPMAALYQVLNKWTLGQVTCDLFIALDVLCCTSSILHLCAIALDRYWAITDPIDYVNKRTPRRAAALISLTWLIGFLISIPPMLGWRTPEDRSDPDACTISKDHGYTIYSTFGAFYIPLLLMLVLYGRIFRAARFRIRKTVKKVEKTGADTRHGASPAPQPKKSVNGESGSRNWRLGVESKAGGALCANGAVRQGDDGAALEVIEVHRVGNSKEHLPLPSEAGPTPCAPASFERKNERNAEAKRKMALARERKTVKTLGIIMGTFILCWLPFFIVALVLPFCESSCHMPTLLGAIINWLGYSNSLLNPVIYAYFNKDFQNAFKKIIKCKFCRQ
Description: as §1
Aliquots of transfected CHO cell membrane preparations corresponding to 7-15 μg protein are incubated for 60 min at 22° C. in 250 μl of 50 mM Tris-HCl buffer (pH 7.4) containing 10 mM MgSO4, 0.5 mM EDTA, 0.3 nM [^3H]8-OH-DPAT and increasing concentrations of the competing drugs. Nonspecific binding is determined in the presence of 10 μM 8-OH-DPAT. After incubation, the samples are filtered rapidly under vacuum through glass fiber filters (GF/B, Packard) and rinsed several times with ice-cold 50 mM Tris-HCl using a cell harvester (Packard). Bound radioactivity is measured with a scintillation counter (Topcount, Packard) using a liquid scintillation cocktail (Microscint 0, Packard). The reference compound for this assay is 8-OH-DPAT.

5-HT5A = molecular target: T4, 5-HT5A (Homo sapiens, UniProt P47898); experiment: 5-HT5A receptor binding; settings: read-out: Serotonin Receptor Binding 5-HT5A (IC50)
T4 construct: host or cells: membrane preparations
T4 sequence (P47898 whole entry, species assumed): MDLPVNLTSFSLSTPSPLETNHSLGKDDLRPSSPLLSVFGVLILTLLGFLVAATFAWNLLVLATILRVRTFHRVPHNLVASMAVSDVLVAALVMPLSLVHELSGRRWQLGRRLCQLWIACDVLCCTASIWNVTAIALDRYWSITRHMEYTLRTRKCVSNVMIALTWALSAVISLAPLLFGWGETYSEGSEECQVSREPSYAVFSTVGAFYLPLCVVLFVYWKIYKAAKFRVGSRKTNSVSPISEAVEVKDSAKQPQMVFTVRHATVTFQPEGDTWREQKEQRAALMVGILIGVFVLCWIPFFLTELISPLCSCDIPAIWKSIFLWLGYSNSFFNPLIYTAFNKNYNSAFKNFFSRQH
Description: as §1

5-HT1A receptors [4] = molecular target: T3, 5-HT1A receptors; settings: in vitro binding studies; cited from earlier work
Human D2 receptor = molecular target: T5, Human D2 receptor (Homo sapiens, UniProt P14416); experiment: Dopamine D2 receptor binding; settings: [3H]spiperone, transfected A9L cell membranes
T5 construct: expressed in transfected cells; host or cells: A9L cells
T5 sequence (P14416 whole entry): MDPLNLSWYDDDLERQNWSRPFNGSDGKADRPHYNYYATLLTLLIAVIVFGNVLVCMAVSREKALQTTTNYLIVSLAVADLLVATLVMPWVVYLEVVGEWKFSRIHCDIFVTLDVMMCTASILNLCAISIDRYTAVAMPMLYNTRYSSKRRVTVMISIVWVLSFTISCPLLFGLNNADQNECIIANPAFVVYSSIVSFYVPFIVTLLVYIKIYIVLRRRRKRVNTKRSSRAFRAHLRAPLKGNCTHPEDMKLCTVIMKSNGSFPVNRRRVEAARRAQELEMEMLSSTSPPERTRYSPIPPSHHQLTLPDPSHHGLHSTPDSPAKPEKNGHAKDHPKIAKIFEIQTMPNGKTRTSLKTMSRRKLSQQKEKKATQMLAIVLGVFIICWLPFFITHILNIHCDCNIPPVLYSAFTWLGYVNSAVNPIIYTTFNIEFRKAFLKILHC
Description: as §1
Aliquots of transfected A9L cell membrane preparations corresponding to 20-40 μg protein are incubated for 60 min at 22° C. in 250 μl of 50 mM Tris-HCl buffer (pH 7.4) containing 120 mM NaCl, 5 mM KCl, 5 mM MgCl2, 1 mM EDTA, 0.3 nM [^3H]spiperone and increasing concentrations of the competing drugs. Nonspecific binding is determined in the presence of 10 μM (+)butaclamol. After incubation, the samples are filtered rapidly under vacuum through glass fiber filters (GF/B, Packard) and rinsed several times with ice-cold 50 mM Tris-HCl using a cell harvester (Packard). Bound radioactivity is measured with a scintillation counter (Topcount, Packard) using a liquid scintillation cocktail (Microscint 0, Packard). The reference compound for this assay is (+)butaclamol.

α1 Receptor = experiment: α1 receptor binding; settings: read-out: α1 Receptor Binding Alpha1 (IC50)
[5] = test system: alpha1-adrenergic receptors; settings: cited from earlier work
[6] = cited from earlier work

In the case of `CCc1nn(CCCN2CCN(c3cccc(Cl)c3)CC2)c(=O)n1CCOc1ccccc1` [Nefazodone], the “affinity for cholinergic receptors” value (cholinergic receptors) is given as “no significant affinity”, the “affinity for benzodiazepine receptors” value (benzodiazepine receptors) is given as “no significant affinity” and the “affinity for alpha2 adrenergic receptors” value [1] is given as “no significant affinity”. For the same molecule, the IC50 (5-HT1D) was 925 nM, the IC50 (5-HT1B) was 1870 nM and the “affinity for dopaminergic receptors” value (dopaminergic receptors) was “no significant affinity”. For the same molecule, the “affinity for beta adrenergic receptors” value [2] was “no significant affinity”, the IC50 (5-HT1A receptors [3]) was 625 nM and the IC50 (5-HT5A) was 1560 nM. The “affinity for 5-HT1A receptors” value (5-HT1A receptors [4]) was “no significant affinity”, the IC50 (Human D2 receptor) was 716 nM and the IC50 (α1 Receptor) was 306 nM. The “action on alpha1-adrenergic receptors” value [5] was “antagonize”, the “kinetics for dose and time (AUC and Cmax)” value ([6]; AUC and Cmax increasing more than proportionally with dose and upon multiple dosing) was “nonlinear kinetics” and the half-life ([6]; in vivo) was 2 to 4 h. For the same molecule, the “time of peak plasma concentrations” value ([6]; in vivo) was “about one” and the absolute bioavailability ([6]; low and variable because of extensive metabolism) was “about 20%”.
